# Like-named read-outs stand apart in the source and are kept apart here. Non-standard residues stand in square brackets, D forms with d. Residues, ends and D or L forms follow the SMILES beside them. No end group written: not given here.
# What was measured:
# [1] = test system: PE cell (pancreatic epidermal); experiment: Cell viability assay (WST-8); format: cell-based
# Source text: (§1) Correlation between IC50 values was observed.
# HEK293T = format: cell-based
# A172 = experiment: Cell viability assay (WST-8); format: cell-based; conditions: 72 h
# KCCT873 = experiment: Cell viability assay (WST-8); format: cell-based; conditions: 72 h
# U251 = conditions: 72 h
# WI-38 = conditions: 72 h
# [2] = test system: HC cell (hepatocyte cell); experiment: Cell viability assay (WST-8); format: cell-based, human; conditions: Human normal hepatocyte cell; 48 hours (Table 8); read-out: IC50
# Source text: as §1
# SU8686 = experiment: Annexin V flow cytometry; format: cell-based, human; conditions: 10 μM, three hours at 37° C.
# Description: SU8686 cells were incubated with Sema3A (363-377)-kLytic peptide (10 μM) for three hours at 37° C., and were analyzed for Annexin V labeling by dual-color flow cytometry.
# SU.86.86 = conditions: for IC50: 48 h
# MRC-5 = experiment: Cell viability assay (WST-8)
# T47D = experiment: Cell viability assay (WST-8); format: cell-based, human
# Source text: as §1
# HuCCT-1 = conditions: 48 h
# H322 = conditions: H322; 72 hours
# [3] = target: recombinant human EGF receptor (rhEGFR) (Homo sapiens, UniProt P00533); experiment: BIACORE binding to EGFR protein
# Description: Surface plasmon resonance (SPR) experiments were performed with a BIACORE biosensor system 3000 (BIACORE Inc., Uppsala, Sweden). About 5000 RU of streptavidin (Sigma) was immobilized on the surface of CM5 sensor chips via N-hydroxysuccinimide and N-ethyl-N′-(dimethylaminopropyl) carbodiimide activation chemistry, and then 2000-3000 RU of peptide conjugated with biotin were injected over the streptavidin-immobilized sensor chip. As a control of nonspecific binding, the unreacted carboxymethyl groups of a sensor chip without immobilized streptavidin were blocked with ethanolamine. As an analyte, cell surface proteins which were prepared using the Mem-PER eukaryotic membrane protein extraction reagent kit (Pierce) were injected over the flow-cell in the flow rate of […]. at 25° C. […] All protein concentrations used in these experiments were determined by the Bradford method (Bradford M M. A rapid and sensitive method for the quantitation of microgram quantities of protein utilizing the principle of protein-dye binding. Anal Biochem 1976; 72:248-54). […]
# Among the aforementioned mutated peptides, first, paying attention to the second H which has charge, K- and R-mutants were chemically synthesized. As described in Example 1, using BIACORE, binding affinity with recombinant human EGFR was evaluated by comparison with that of wild-type EGFR-binding peptide. […]
molecule,measurement,setting,value
"CC[C@H](C)[C@H](NC(=O)[C@H](CC(C)C)NC(=O)[C@H](CCC(N)=O)NC(=O)[C@@H](N)CCCCN)C(=O)N[C@@H](CCCNC(=N)N)C(=O)N[C@@H](Cc1ccccc1)C(=O)N[C@@H](CC(C)C)C(=O)N[C@@H](CCCCN)C(=O)N[C@@H](CCCNC(=N)N)C(=O)N[C@@H](CC(C)C)C(=O)N[C@@H](CC(=O)O)C(=O)N[C@@H](CCCNC(=N)N)C(=O)N[C@@H](CC(N)=O)C(=O)NCC(=O)NCC(=O)NCC(=O)N[C@@H](CCCCN)C(=O)N[C@@H](CC(C)C)C(=O)N[C@H](CC(C)C)C(=O)N[C@@H](CC(C)C)C(=O)N[C@@H](CCCCN)C(=O)N[C@H](CC(C)C)C(=O)N[C@@H](CC(C)C)C(=O)N[C@H](CCCCN)C(=O)N[C@H](CCCCN)C(=O)N[C@@H](CC(C)C)C(=O)N[C@@H](CC(C)C)C(=O)N[C@@H](CCCCN)C(=O)N[C@H](CC(C)C)C(=O)N[C@@H](CC(C)C)C(=O)N[C@@H](CCCCN)C(=O)N[C@@H](CCCCN)C(=O)N[C@@H](CCCCN)C(=O)O [IL4-lytic (L, D)] (H-KQLIRFLKRLDRNGGGKL[dL]LK[dL]L[dK][dK]LLK[dL]LKKK-OH; N-terminus and C-terminus assumed)",IC50,"[1]; PE normal cells, 72 hours, Mean ± SD (Table 4), read-out: IC50",> 20 µM
same,IC50,HEK293T; 72 h,14.2 ± 1.3 µM
same,IC50,A172,6.8 ± 0.4 µM
same,IC50,KCCT873,5.9 ± 0.6 µM
same,IC50,U251,6.6 ± 0.4 µM
same,IC50,BxPC-3; 72 h,6.8 ± 0.3 µM
same,IC50,WI-38,16.1 ± 0.5 µM
same,IC50,MDA-MB-231; 72 h,5.7 ± 0.4 µM
CC(C)C[C@H](NC(=O)[C@H](CC(C)C)NC(=O)[C@@H](CCCCN)NC(=O)[C@@H](CCCCN)NC(=O)[C@H](CC(C)C)NC(=O)[C@@H](CC(C)C)NC(=O)[C@H](CCCCN)NC(=O)[C@H](CC(C)C)NC(=O)[C@@H](CC(C)C)NC(=O)[C@H](CC(C)C)NC(=O)[C@H](CCCCN)NC(=O)CNC(=O)CNC(=O)CNC(=O)[C@H](CCCNC(=N)N)NC(=O)[C@@H]1CCCN1C(=O)[C@H](Cc1ccc(O)cc1)NC(=O)[C@@H]1CCCN1C(=O)[C@@H](NC(=O)[C@H](CCCNC(=N)N)NC(=O)CNC(=O)[C@H](CCC(N)=O)NC(=O)[C@H](Cc1ccc(O)cc1)NC(=O)[C@@H]1CCCN1C(=O)[C@@H](NC(=O)[C@H](Cc1c[nH]c2ccccc12)NC(=O)[C@H](CCC(N)=O)NC(=O)[C@H](Cc1ccc(O)cc1)NC(=O)[C@@H](N)CC(N)=O)C(C)C)C(C)C)C(=O)N[C@@H](CCCCN)C(=O)N[C@H](CC(C)C)C(=O)N[C@@H](CC(C)C)C(=O)N[C@@H](CCCCN)C(=O)N[C@@H](CCCCN)C(=O)N[C@@H](CCCCN)C(=O)O [Sema3A(aa363-377)-kLytic] (H-NYQWVPYQGRVPYPRGGGKL[dL]LK[dL]L[dK][dK]LLK[dL]LKKK-OH; N-terminus and C-terminus assumed),IC50,"[1]; Pancreatic epidermal cell, normal cells, 48 hours (Table 8), read-out: IC50",> 20 µM
same,IC50,[2],37.5 µM
same,Annexin V-positive dead cells,SU8686; listed as Sema3A (363-377)-kLytic,increased
same,Annexin V-positive dead cells,SU8686; listed as Sema3A(363-377)-kLytic,induces Annexin V-positive expression
same,IC50,BxPC-3; 48 h,5.7 ± 2.3 µM
same,IC50,SU.86.86,5.2 ± 0.4 µM
same,IC50,CFPAC-1; 48 h,6.7 ± 0.1 µM
same,IC50,Panc-1; 48 h,13 ± 2.7 µM
same,IC50,"MRC-5; MRC-5 normal cells, 48 hours (Table 8)",> 50 µM
CC(C)C[C@H](NC(=O)[C@H](CCCCN)NC(=O)[C@@H](CC(C)C)NC(=O)[C@H](CC(C)C)NC(=O)[C@H](CCCCN)NC(=O)[C@H](CCCCN)NC(=O)[C@H](CC(C)C)NC(=O)[C@@H](CC(C)C)NC(=O)[C@@H](CCCCN)NC(=O)[C@H](CCCCN)NC(=O)[C@H](CC(C)C)NC(=O)[C@H](CC(C)C)NC(=O)[C@@H](CCCCN)NC(=O)[C@H](CC(C)C)NC(=O)[C@H](CC(C)C)NC(=O)CNC(=O)CNC(=O)[C@H](CCCNC(=N)N)NC(=O)[C@@H]1CCCN1C(=O)[C@H](Cc1ccc(O)cc1)NC(=O)[C@@H]1CCCN1C(=O)[C@@H](NC(=O)[C@H](CCCNC(=N)N)NC(=O)CNC(=O)[C@H](CCC(N)=O)NC(=O)[C@H](Cc1ccc(O)cc1)NC(=O)[C@@H]1CCCN1C(=O)[C@@H](NC(=O)[C@H](Cc1c[nH]c2ccccc12)NC(=O)[C@H](CCC(N)=O)NC(=O)[C@H](Cc1ccc(O)cc1)NC(=O)[C@@H](N)CC(N)=O)C(C)C)C(C)C)C(=O)O [Sema3A(aa363-377)-nLytic] (H-NYQWVPYQGRVPYPRGGLL[dK]LLK[dK][dL]LKKL[dL]KL-OH; N-terminus and C-terminus assumed),IC50,[1]; 48 h,> 50 µM
same,IC50,T47D; 48 h,4.1 µM
same,IC50,HEK293T; 48 h,> 20 µM
same,IC50,BT-20; 48 h,10.9 µM
same,IC50,BxPC-3; 48 h,12.5 µM
same,IC50,SU.86.86,7.9 µM
same,IC50,MDA-MB-231; 48 h,11.5 µM
same,IC50,SK-BR-3; 48 h,8 µM
same,IC50,CFPAC-1; 48 h,10.6 µM
same,IC50,Panc-1; 48 h,13.1 µM
same,IC50,HuCCT-1,13.6 µM
"CC(C)C[C@H](NC(=O)[C@H](CCCCN)NC(=O)[C@@H](CC(C)C)NC(=O)[C@H](CC(C)C)NC(=O)[C@H](CCCCN)NC(=O)[C@H](CCCCN)NC(=O)[C@H](CC(C)C)NC(=O)[C@@H](CC(C)C)NC(=O)[C@@H](CCCCN)NC(=O)[C@H](CCCCN)NC(=O)[C@H](CC(C)C)NC(=O)[C@H](CC(C)C)NC(=O)[C@@H](CCCCN)NC(=O)[C@H](CC(C)C)NC(=O)[C@@H](N)CC(C)C)C(=O)O [nLytic, LLKLLKKLLKKLLKL] (H-LL[dK]LLK[dK][dL]LKKL[dL]KL-OH; N-terminus and C-terminus assumed)",IC50,"[1]; Pancreatic epithelium normal cells, 48 hours (Table 5), read-out: IC50",> 50 µM
same,IC50,"T47D; T47D breast cancer cells, 48 hours (Table 6), read-out: IC50",12.5 µM
same,IC50,"BT-20; BT20 breast cancer cells, 48 hours (Table 6)",38 µM
same,IC50,BxPC-3; 48 h,38.5 µM
same,IC50,SU.86.86,19.5 µM
same,IC50,MDA-MB-231; 48 h,29.6 µM
same,IC50,"CFPAC-1; CFPAC-1 cancer cells, 48 hours (Table 5)",22.6 µM
same,IC50,"Panc-1; Panc-1 cancer cells, 48 hours (Table 5)",28.2 µM
NYQWVPYQGRVPYPRGGGKLLLKLLKKLLKLLKKK (Sema3A-lyticL chimeric peptide),cell-killing effect compared with LyticL alone,"SU.86.86; SU86.86, 72 hours",cell-killing effect was enhanced
same,cell-killing effect compared with LyticL alone,"SK-BR-3; SKBR3, 72 hours",cell-killing effect was enhanced
"YHWYGYTPQNVIGGGLKLLKKLLKKLLKLL-NH2 (C-terminal amide; EB-original Lytic peptide; position 18, 21, 23, 24 and 28 are D-amino acids, and -CONH2 is existing at C-terminal.)",cytotoxicity to normal cell line MRC-5,"MRC-5; MRC-5, 72 hours",killed even normal cell line (MRC-5) at lower concentration
YHWYGYTPQNVIGGGLKLLKKLLKKLLKLL-NH2 (YHWYGYTPQNVIGGGLK[dL]LK[dK]L[dL][dK]KLL[dK]LL-NH2; N-terminus assumed; SMILES CC[C@H](C)[C@H](NC(=O)[C@@H](NC(=O)[C@H](CC(N)=O)NC(=O)[C@H](CCC(N)=O)NC(=O)[C@@H]1CCCN1C(=O)[C@@H](NC(=O)[C@H](Cc1ccc(O)cc1)NC(=O)CNC(=O)[C@H](Cc1ccc(O)cc1)NC(=O)[C@H](Cc1c[nH]c2ccccc12)NC(=O)[C@H](Cc1c[nH]cn1)NC(=O)[C@@H](N)Cc1ccc(O)cc1)[C@@H](C)O)C(C)C)C(=O)NCC(=O)NCC(=O)NCC(=O)N[C@@H](CC(C)C)C(=O)N[C@@H](CCCCN)C(=O)N[C@H](CC(C)C)C(=O)N[C@@H](CC(C)C)C(=O)N[C@@H](CCCCN)C(=O)N[C@H](CCCCN)C(=O)N[C@@H](CC(C)C)C(=O)N[C@H](CC(C)C)C(=O)N[C@H](CCCCN)C(=O)N[C@@H](CCCCN)C(=O)N[C@@H](CC(C)C)C(=O)N[C@@H](CC(C)C)C(=O)N[C@H](CCCCN)C(=O)N[C@@H](CC(C)C)C(=O)N[C@@H](CC(C)C)C(N)=O) [EB-original lytic peptide],cell-killing effect of chimeric peptide compared with lytic moiety alone,H322,did not show enhancement of cytotoxic activity
YKWYGYTPQNVI (EGFR binding peptide) [K-substituted peptide],biosensor response compared with wild-type EGFR-binding peptide,[3],some enhancement of biosensor response
YRWYGYTPQNVI (EGFR binding peptide) [R-substituted peptide],biosensor response compared with wild-type EGFR-binding peptide,[3],response of two fold of wild-type
